We go through 40 compounds from the supplement of paper PMC12613149.

Data set [1] in a line: collision cross section (TIMS, N2 drift gas) of the primary ion; higher = larger gas-phase ion size.
Data set [2] can be described thus: reversed-phase LC retention time (C18, 15 min MeOH gradient); higher = more hydrophobic / later elution.
[3] abbreviates: ionization mode: ESI+, ion species: [M+H]+.
[4] abbreviates: ionization mode: ESI-, ion species: [M-H]-.

Molecules are shown by their SMILES.

`CCC(=O)OCC(=O)C1(OC(=O)CC)C(C)CC2C3CCC4=CC(=O)C=CC4(C)C3(F)C(O)CC21C` (stereo unspecified) [Betamethasone dipropionate]: the collision cross section in data set [1] (setting [3]) is listed as 220.81 Å²; in data set [1] (setting [4]), 216.67 Å². Further, the “reversed-phase LC retention time” value in data set [2] (setting [3]) was determined as 15.7 min; in data set [2] (setting [4]) it was 16.2 min.
On the same counts, the results for `CCCCC(=O)O[C@]1(C(=O)CO)[C@@H](C)C[C@H]2[C@@H]3CCC4=CC(=O)C=C[C@]4(C)[C@@]3(F)[C@@H](O)C[C@@]21C` [Betamethasone-17-valerate] are 216.68 Å², 216.5 Å², 15.5 min and 16 min.
For `CC(C)(Oc1ccc(CCNC(=O)c2ccc(Cl)cc2)cc1)C(=O)O` [Bezafibrate] the same measures were 179.03 Å², 181.16 Å², 14 min and 12.3 min.
For `CC(O)(CS(=O)(=O)c1ccc(F)cc1)C(=O)Nc1ccc(C#N)c(C(F)(F)F)c1` (stereo unspecified) [Bicalutamide] the same measures were 205.43 Å², 184.69 Å², 13.4 min and 13.7 min.
Compound `O=C(O)c1cc(Oc2ccc(Cl)cc2Cl)ccc1[N+](=O)[O-]` [Bifenox free acid] displayed a collision cross section in data set [1] (setting [4]) of 177.92 Å². The “reversed-phase LC retention time” value in data set [2] (setting [4]) came out at 13.1 min.
On the same counts, the results for `COc1ccc(-c2coc3cc(O)cc(O)c3c2=O)cc1` [Biochanin A] are 166.25 Å² and 12.9 min.
In turn, `CC1(C)CC(OC(=O)CCCCCCCCC(=O)OC2CC(C)(C)NC(C)(C)C2)CC(C)(C)N1` [Bis(2,2,6,6-tetramethyl-4-piperidyl)sebacate] yielded a collision cross section in data set [1] (setting [3]) of 225.08 Å². In addition, in data set [2] (setting [3]), the “reversed-phase LC retention time” value was determined as 11.8 min.
As to `CCCCC(CC)COP(=O)(O)OCC(CC)CCCC` (stereo unspecified) [Bis(2-ethylhexyl)phosphate], the collision cross section worked out at 223.46 Å² in data set [1] (setting [3]) and 188.09 Å² in data set [1] (setting [4]). In addition, the results for the “reversed-phase LC retention time” value in data set [2] (setting [3]) and in data set [2] (setting [4]) were 19.8 min and 17.1 min, respectively.
`CCCCC(CC)COC(=O)c1ccccc1C(=O)OCC(CC)CCCC` (stereo unspecified) [Bis(2-ethylhexyl)phthalate] yielded a collision cross section in data set [1] (setting [3]) of 212.9 Å². The “reversed-phase LC retention time” value in data set [2] (setting [3]) was found to be 19.1 min.
For `CC(C)NCC(O)COc1ccc(COCCOC(C)C)cc1` (stereo unspecified) [Bisoprolol] the same measures were 191.63 Å² and 11 min.
Regarding `CC(C)(c1ccc(OCC(O)CCl)cc1)c1ccc(OCC(O)CCl)cc1` (stereo unspecified) [Bisphenol A bis(3-chloro-2-hydroxypropyl) ether], the collision cross section in data set [1] (setting [3]) was found to be 194.74 Å². The “reversed-phase LC retention time” value in data set [2] (setting [3]) came to 14.2 min.
In the case of `Oc1ccc(C(c2ccc(O)cc2)(C(F)(F)F)C(F)(F)F)cc1` [Bisphenol AF], in data set [1] (setting [4]), the collision cross section is reported as 165.55 Å². Moreover, the “reversed-phase LC retention time” value in data set [2] (setting [4]) came to 14.8 min.
On the same counts, the results for `CC(C)(c1ccc(O)cc1)c1ccc(O)cc1` [Bisphenol A] are 161.33 Å² and 13.4 min.
For `Oc1ccc(C(c2ccccc2)(c2ccccc2)c2ccc(O)cc2)cc1` [Bisphenol BP] the same measures were 196.58 Å² and 16 min.
For `CCC(C)(c1ccc(O)cc1)c1ccc(O)cc1` [Bisphenol B] the same measures were 165.01 Å² and 14.3 min.
For the compound `Oc1ccc(C(=C(Cl)Cl)c2ccc(O)cc2)cc1` [Bisphenol C], in data set [1] (setting [4]), the collision cross section turned out to be 164.81 Å². Moreover, the “reversed-phase LC retention time” value in data set [2] (setting [4]) came to 14.5 min.
In data set [1] (setting [4]), `CC(c1ccc(O)cc1)c1ccc(O)cc1` [Bisphenol E] gave a collision cross section of 156.4 Å². Besides, in data set [2] (setting [4]), the “reversed-phase LC retention time” value worked out at 12.7 min.
For `Oc1ccc(Cc2ccc(O)cc2)cc1` [Bisphenol F] the same measures were 152.1 Å² and 11.9 min.
`CC(C)c1cc(C(C)(C)c2ccc(O)c(C(C)C)c2)ccc1O` [Bisphenol G] came in with a collision cross section in data set [1] (setting [4]) of 187.67 Å². Besides, in data set [2] (setting [4]), the “reversed-phase LC retention time” value was 16.8 min.
In data set [1] (setting [4]), `CC(C)(c1ccc(O)c(-c2ccccc2)c1)c1ccc(O)c(-c2ccccc2)c1` [Bisphenol PH] displayed a collision cross section of 204.63 Å². In addition, the “reversed-phase LC retention time” value in data set [2] (setting [4]) amounted to 17.2 min.
As for `O=S(=O)(c1ccc(O)cc1)c1ccc(O)cc1` [Bisphenol S], the collision cross section stood at 155.2 Å² in data set [1] (setting [3]) and 154.29 Å² in data set [1] (setting [4]). Also, the “reversed-phase LC retention time” value came to 9.38 min in data set [2] (setting [3]) and 7.15 min in data set [2] (setting [4]).
In turn, `Oc1ccc(C2(c3ccc(O)cc3)CCCCC2)cc1` [Bisphenol Z] came in with a collision cross section in data set [1] (setting [4]) of 173.12 Å². The “reversed-phase LC retention time” value in data set [2] (setting [4]) amounted to 15.3 min.
The compound `CC(C)(C)C(O)C(Oc1ccc(-c2ccccc2)cc1)n1cncn1` (stereo unspecified) [Bitertanol] registered a collision cross section in data set [1] (setting [3]) of 192.15 Å². Moreover, the “reversed-phase LC retention time” value in data set [2] (setting [3]) amounted to 15.9 min.
For `O=C(Nc1ccccc1-c1ccc(Cl)cc1)c1cccnc1Cl` [Boscalid] the same measures were 177.19 Å² and 14.2 min.
In the case of `COc1ccccc1Oc1c(NS(=O)(=O)c2ccc(C(C)(C)C)cc2)nc(-c2ncccn2)nc1OCCO` [Bosentan], the collision cross section in data set [1] (setting [3]) is 231.31 Å². For the same compound, the “reversed-phase LC retention time” value in data set [2] (setting [3]) worked out at 14.8 min.
On the same counts, the results for `CCC(C)n1c(=O)[nH]c(C)c(Br)c1=O` (stereo unspecified) [Bromacil] are 144.76 Å² and 11.4 min.
Turning to `Oc1c(Br)cc(Cl)cc1Cc1cc(Cl)cc(Br)c1O` [Bromochlorophen], the collision cross section in data set [1] (setting [4]) is 171.71 Å². In addition, the “reversed-phase LC retention time” value in data set [2] (setting [4]) was 16.3 min.
For the compound `CCCCc1c(C)nc(NCC)nc1OS(=O)(=O)N(C)C` [Bupirimate], the collision cross section in data set [1] (setting [3]) is listed as 176.08 Å². For the same compound, the “reversed-phase LC retention time” value in data set [2] (setting [3]) amounted to 14.7 min.
As to `CC(NC(C)(C)C)C(=O)c1cccc(Cl)c1` (stereo unspecified) [Bupropion], the collision cross section in data set [1] (setting [3]) was 158.6 Å². Moreover, the “reversed-phase LC retention time” value in data set [2] (setting [3]) amounted to 10.3 min.
On to `Oc1ccc2c(c1)C13CCCCC1(O)C(C2)N(CC1CCC1)CC3` (stereo unspecified) [Butorphanol], for which the collision cross section in data set [1] (setting [4]) is given as 188.37 Å². Also, the “reversed-phase LC retention time” value in data set [2] (setting [4]) was 16.6 min.
On the same counts, the results for `CCCCOC(=O)c1ccc(O)cc1` [Butyl 4-hydroxybenzoate] are 147.76 Å² and 14.2 min.
On to `Cn1c(=O)c2c(ncn2C)n(C)c1=O` [Caffeine], for which the collision cross section in data set [1] (setting [3]) stood at 139.07 Å². Moreover, in data set [2] (setting [3]), the “reversed-phase LC retention time” value is 7.7 min.
As for `CCOc1nc2cccc(C(=O)O)c2n1Cc1ccc(-c2ccccc2-c2nnn[nH]2)cc1` [Candesartan], the collision cross section amounted to 196.78 Å² in data set [1] (setting [3]) and 202.36 Å² in data set [1] (setting [4]). For the same compound, the “reversed-phase LC retention time” value is 13.3 min in data set [2] (setting [3]) and 9.52 min in data set [2] (setting [4]).
On to `CC12CCC(=O)C=C1C=CC1[C@@H]2CCC2(C)[C@H]1CCC21CCC(=O)O1` (stereo partly specified) [Canrenone], for which the collision cross section in data set [1] (setting [3]) amounted to 186.86 Å². Besides, in data set [2] (setting [3]), the “reversed-phase LC retention time” value was found to be 14.2 min.
For `NC(=O)N1c2ccccc2C=Cc2ccccc21` [Carbamazepine] the same measures were 150.05 Å² and 12.3 min.
On the same counts, the results for `COC(=O)Nc1nc2ccccc2[nH]1` [Carbendazim] are 137.16 Å² and 7.33 min.
For `CCNC(=O)[C@@H](C)OC(=O)Nc1ccccc1` [Carbetamide] the same measures were 155.79 Å² and 11 min.
With `CNC(=O)Oc1cccc2c1OC(C)(C)C2` [Carbofuran], the collision cross section in data set [1] (setting [3]) is given as 147.19 Å². Further, the “reversed-phase LC retention time” value in data set [2] (setting [3]) is 11.7 min.
Consider `c1ccc2c(c1)[nH]c1ncccc12` [Carboline], for which the collision cross section in data set [1] (setting [3]) is on record as 132.73 Å²; in data set [1] (setting [4]) it was 129.53 Å². Also, the “reversed-phase LC retention time” value in data set [2] (setting [3]) is 11.7 min; in data set [2] (setting [4]) it was 12.9 min.
Take `Nc1nc(=O)c2ncn(COCC(=O)O)c2[nH]1` [Carboxy-aciclovir]: the collision cross section in data set [1] (setting [3]) stood at 150.15 Å². Also, in data set [2] (setting [3]), the “reversed-phase LC retention time” value amounted to 2.54 min.
